In ChEMBL document CHEMBL5465560, “Selectivity Literature for EUbOPEN Chemogenomic Library” (2024):

How the values were obtained:
[1] = biological target: Tyrosine-protein kinase Lck (Homo sapiens, UniProt P06239); settings: at 3 µM
[2] = biological target: SRSF protein kinase 3 (Homo sapiens) (UniProt Q9UPE1); experiment: Selectivity interaction (KinomeScan (DiscoverX)) EUB0001049a SRPK3; settings: at 1 µM
[3] = biological target: Casein kinase II subunit alpha (Homo sapiens, UniProt P68400); experiment: Selectivity interaction (KinomeScan (DiscoverX)) EUB0001049a CSNK2A1; settings: at 1 µM
[4] = biological target: T1, Mitogen-activated protein kinase kinase kinase 19 (Homo sapiens) (UniProt Q56UN5); experiment: Selectivity interaction (KinomeScan (DiscoverX)) EUB0001049a MAP3K19; settings: at 1 µM
T1 sequence (whole entry): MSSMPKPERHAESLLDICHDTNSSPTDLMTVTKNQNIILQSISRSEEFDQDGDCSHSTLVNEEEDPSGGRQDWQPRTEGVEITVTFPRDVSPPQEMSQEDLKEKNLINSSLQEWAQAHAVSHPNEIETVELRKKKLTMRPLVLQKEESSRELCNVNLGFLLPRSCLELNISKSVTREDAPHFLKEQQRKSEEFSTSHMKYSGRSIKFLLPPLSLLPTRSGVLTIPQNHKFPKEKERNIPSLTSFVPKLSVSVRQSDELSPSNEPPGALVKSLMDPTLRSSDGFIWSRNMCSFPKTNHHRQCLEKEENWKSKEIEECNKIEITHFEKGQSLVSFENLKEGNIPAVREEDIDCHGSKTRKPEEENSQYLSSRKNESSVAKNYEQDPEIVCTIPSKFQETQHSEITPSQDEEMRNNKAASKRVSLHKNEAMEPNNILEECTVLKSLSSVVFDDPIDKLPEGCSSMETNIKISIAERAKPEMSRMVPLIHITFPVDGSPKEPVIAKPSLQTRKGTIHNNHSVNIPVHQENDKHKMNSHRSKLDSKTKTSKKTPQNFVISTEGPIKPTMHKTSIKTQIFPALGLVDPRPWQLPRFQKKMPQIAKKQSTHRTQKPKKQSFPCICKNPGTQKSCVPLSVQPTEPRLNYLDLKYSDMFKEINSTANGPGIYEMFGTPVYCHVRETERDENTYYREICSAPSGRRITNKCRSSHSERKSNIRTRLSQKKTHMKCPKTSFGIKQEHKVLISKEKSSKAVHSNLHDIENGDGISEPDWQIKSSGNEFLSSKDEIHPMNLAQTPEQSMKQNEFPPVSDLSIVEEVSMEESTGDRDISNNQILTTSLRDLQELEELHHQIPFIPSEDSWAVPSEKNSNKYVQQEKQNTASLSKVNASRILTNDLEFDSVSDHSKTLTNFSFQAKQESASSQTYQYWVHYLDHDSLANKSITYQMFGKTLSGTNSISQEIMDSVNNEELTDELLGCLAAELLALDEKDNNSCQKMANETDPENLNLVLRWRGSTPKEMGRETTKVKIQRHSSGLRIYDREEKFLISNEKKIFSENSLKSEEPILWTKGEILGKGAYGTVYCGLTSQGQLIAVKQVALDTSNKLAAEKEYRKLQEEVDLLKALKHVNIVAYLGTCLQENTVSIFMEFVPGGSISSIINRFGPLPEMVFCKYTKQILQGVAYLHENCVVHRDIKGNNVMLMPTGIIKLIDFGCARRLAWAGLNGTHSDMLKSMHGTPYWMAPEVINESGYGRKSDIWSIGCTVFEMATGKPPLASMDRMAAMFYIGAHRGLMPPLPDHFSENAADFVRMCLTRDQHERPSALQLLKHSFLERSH

[5] = biological target: Ribosomal protein S6 kinase alpha-1 (Homo sapiens, UniProt Q15418); experiment: Selectivity interaction (ActivX KiNativ screen (kinase selectivity in THP-1 cell lysates)) EUB0000639a RPS6KA1; assay type: subcellular; settings: lysate, at 1 µM
[6] = biological target: T2, Ephrin type-A receptor 3 (Homo sapiens) (UniProt P29320); experiment: Selectivity interaction (Kinase panel (Invitrogen)) EUB0000639a EPHA3; settings: at 200 nM
T2 sequence (whole entry): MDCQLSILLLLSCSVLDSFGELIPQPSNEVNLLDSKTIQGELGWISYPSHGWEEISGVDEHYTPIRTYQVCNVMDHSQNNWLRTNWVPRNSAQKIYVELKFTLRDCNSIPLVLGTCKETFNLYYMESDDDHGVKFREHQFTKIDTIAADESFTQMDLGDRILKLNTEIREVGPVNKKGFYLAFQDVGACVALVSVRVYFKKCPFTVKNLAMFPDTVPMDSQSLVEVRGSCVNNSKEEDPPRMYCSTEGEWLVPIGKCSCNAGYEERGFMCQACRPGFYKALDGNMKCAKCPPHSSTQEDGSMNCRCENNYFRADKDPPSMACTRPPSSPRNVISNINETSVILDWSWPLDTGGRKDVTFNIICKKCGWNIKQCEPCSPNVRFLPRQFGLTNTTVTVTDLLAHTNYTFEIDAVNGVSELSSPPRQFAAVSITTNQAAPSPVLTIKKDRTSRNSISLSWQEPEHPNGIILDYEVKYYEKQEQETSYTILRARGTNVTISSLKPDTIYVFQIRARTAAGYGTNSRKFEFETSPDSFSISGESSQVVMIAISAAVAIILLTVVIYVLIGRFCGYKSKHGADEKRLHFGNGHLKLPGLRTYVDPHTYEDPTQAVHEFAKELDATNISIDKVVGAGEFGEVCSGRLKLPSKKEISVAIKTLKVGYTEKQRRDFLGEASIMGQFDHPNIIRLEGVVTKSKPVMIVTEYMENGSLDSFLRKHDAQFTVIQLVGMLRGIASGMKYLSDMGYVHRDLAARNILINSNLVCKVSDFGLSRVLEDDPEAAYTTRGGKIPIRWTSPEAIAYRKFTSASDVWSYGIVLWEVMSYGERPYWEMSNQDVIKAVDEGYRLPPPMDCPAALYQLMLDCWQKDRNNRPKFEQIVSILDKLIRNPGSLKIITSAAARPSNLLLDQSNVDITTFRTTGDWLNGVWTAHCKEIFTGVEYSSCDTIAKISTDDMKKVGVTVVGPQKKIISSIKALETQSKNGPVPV

[7] = biological target: Ribosomal protein S6 kinase alpha-4 (Homo sapiens) (UniProt O75676); experiment: Selectivity interaction (KinomeScan (DiscoverX)) EUB0000695a RPS6KA4; settings: at 100 nM
[8] = biological target: Activin receptor type-2B (Homo sapiens) (UniProt Q13705); experiment: Selectivity interaction (KinomeScan (DiscoverX)) EUB0000092b ACVR2B; settings: at 10 µM
[9] = biological target: Receptor tyrosine-protein kinase erbB-3 (Homo sapiens) (UniProt P21860); experiment: Selectivity interaction (KinomeScan (DiscoverX)) EUB0000045b ERBB3
[10] = biological target: Leukocyte tyrosine kinase receptor (Homo sapiens, UniProt P29376); experiment: Selectivity interaction (KinomeScan (DiscoverX)) EUB0000655a LTK; settings: at 10 µM
[11] = biological target: Rho-associated protein kinase 1 (Homo sapiens) (UniProt Q13464); experiment: Selectivity interaction (SelectScreen profiling (Invitrogen)) EUB0000607a ROCK1; settings: at 2 µM
Chain of Rho-associated protein kinase 1 (Homo sapiens) (Q13464 2-1354 limits assumed): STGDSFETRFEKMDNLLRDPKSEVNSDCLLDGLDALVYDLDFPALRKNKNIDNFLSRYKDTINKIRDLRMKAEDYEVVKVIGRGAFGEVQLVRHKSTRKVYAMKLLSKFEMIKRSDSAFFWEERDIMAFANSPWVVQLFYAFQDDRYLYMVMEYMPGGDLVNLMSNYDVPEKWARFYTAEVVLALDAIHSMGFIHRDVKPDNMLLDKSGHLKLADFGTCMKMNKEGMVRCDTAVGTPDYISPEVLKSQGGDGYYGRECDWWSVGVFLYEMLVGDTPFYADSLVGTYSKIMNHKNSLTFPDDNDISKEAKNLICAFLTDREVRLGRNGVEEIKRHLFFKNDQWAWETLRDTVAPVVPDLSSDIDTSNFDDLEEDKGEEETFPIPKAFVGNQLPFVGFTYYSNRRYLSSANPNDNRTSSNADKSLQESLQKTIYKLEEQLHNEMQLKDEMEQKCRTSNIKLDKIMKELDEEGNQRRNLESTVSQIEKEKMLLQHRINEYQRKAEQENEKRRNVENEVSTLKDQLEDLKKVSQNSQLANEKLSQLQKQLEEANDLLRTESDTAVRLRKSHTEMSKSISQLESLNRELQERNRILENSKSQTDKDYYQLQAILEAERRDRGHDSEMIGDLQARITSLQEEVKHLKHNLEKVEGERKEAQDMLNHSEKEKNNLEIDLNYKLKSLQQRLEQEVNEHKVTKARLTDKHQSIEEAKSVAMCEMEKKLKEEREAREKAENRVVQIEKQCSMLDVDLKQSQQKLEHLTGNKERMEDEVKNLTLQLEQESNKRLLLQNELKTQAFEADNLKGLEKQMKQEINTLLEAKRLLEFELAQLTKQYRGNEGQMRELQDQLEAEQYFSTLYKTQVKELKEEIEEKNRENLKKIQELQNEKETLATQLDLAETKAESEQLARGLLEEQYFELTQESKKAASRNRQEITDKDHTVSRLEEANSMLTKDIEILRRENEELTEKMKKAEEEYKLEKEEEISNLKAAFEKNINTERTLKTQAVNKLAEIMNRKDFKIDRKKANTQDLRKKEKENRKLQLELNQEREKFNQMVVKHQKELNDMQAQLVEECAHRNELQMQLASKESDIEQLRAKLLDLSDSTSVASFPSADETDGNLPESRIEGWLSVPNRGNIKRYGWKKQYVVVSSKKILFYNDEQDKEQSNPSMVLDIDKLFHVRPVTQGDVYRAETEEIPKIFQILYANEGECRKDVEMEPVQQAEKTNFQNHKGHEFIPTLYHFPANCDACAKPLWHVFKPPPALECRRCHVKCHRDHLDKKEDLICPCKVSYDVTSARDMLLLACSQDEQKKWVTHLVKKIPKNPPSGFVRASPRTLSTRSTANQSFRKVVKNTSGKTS

Chain of Receptor tyrosine-protein kinase erbB-3 (Homo sapiens) (P21860 whole entry): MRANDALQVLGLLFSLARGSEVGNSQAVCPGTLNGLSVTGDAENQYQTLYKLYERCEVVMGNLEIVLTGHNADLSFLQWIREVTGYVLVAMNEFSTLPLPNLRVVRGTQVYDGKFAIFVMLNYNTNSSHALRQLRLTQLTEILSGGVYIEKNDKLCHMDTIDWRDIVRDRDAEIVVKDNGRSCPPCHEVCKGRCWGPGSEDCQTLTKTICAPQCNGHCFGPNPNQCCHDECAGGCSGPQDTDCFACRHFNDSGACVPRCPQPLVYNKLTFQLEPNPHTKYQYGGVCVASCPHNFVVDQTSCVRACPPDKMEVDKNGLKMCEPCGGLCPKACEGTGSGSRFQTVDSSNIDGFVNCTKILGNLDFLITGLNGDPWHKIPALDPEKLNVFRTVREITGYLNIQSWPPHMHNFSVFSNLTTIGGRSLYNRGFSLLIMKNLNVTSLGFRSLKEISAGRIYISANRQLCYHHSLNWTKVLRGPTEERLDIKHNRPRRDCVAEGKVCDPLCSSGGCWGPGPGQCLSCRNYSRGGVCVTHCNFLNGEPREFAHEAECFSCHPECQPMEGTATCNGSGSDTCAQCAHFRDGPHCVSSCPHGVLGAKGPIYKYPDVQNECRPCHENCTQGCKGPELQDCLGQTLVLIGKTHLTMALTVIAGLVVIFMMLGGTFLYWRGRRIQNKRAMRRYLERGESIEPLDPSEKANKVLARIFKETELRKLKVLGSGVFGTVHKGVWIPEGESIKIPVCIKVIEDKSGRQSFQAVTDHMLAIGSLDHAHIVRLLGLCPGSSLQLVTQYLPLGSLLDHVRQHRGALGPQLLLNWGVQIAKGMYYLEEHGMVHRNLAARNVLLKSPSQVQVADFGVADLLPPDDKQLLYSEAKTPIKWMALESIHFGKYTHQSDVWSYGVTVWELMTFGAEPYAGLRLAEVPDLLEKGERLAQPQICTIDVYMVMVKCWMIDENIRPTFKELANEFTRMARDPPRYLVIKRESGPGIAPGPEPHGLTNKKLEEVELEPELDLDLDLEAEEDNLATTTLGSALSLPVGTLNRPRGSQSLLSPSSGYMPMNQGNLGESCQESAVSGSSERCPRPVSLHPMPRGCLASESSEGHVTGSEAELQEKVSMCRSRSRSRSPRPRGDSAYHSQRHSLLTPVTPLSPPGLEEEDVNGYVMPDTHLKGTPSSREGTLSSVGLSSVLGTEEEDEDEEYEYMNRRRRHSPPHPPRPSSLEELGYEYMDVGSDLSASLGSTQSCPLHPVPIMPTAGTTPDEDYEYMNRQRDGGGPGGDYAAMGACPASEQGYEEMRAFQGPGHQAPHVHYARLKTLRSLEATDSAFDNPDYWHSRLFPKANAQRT
Chain of Casein kinase II subunit alpha (P68400 whole entry, looked up): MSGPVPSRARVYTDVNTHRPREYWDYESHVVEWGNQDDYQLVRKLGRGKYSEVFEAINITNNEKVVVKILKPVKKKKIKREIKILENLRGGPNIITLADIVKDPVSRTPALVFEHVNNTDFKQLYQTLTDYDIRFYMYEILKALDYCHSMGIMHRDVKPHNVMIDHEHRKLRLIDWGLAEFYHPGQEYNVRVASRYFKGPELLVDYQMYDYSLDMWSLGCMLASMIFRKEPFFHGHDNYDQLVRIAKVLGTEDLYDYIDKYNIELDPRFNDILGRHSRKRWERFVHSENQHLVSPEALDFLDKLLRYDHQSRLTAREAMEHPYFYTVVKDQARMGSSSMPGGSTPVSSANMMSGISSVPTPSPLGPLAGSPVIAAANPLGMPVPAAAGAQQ
Chain of Activin receptor type-2B (Homo sapiens) (Q13705 whole entry): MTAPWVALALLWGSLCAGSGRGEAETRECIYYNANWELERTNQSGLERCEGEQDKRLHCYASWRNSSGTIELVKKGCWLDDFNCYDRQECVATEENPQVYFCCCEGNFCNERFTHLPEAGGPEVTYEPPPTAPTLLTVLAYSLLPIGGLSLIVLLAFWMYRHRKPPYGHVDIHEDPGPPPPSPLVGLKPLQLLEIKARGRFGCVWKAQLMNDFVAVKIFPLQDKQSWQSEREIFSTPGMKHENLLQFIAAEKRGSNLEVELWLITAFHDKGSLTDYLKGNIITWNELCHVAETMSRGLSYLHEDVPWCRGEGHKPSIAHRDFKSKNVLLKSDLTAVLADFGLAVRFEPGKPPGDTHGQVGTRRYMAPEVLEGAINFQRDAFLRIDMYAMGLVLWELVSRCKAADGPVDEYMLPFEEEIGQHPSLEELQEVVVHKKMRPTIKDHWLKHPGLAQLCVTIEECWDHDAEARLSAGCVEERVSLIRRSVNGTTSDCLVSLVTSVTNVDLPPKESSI
Chain of Ribosomal protein S6 kinase alpha-4 (Homo sapiens) (O75676 whole entry, looked up): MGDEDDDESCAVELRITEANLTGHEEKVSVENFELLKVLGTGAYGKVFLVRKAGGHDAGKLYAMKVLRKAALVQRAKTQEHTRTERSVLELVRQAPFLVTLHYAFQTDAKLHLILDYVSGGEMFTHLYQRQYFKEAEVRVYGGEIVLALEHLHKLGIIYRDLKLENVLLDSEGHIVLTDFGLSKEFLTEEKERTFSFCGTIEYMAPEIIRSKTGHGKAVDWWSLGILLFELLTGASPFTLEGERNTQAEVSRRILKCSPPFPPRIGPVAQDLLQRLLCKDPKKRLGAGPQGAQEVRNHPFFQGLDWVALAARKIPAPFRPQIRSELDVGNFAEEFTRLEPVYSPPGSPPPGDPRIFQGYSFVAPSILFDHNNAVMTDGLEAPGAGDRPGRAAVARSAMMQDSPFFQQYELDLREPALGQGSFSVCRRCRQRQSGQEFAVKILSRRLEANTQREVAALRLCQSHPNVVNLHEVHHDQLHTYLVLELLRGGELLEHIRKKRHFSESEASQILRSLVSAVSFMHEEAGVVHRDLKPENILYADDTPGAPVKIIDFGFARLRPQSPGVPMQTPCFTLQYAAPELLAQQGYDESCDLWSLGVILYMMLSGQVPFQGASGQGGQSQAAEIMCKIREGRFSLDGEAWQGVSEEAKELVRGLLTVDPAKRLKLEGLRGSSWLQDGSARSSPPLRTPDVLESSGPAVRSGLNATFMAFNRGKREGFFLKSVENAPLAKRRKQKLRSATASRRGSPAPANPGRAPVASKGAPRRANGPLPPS
Chain of SRSF protein kinase 3 (Homo sapiens) (Q9UPE1 whole entry): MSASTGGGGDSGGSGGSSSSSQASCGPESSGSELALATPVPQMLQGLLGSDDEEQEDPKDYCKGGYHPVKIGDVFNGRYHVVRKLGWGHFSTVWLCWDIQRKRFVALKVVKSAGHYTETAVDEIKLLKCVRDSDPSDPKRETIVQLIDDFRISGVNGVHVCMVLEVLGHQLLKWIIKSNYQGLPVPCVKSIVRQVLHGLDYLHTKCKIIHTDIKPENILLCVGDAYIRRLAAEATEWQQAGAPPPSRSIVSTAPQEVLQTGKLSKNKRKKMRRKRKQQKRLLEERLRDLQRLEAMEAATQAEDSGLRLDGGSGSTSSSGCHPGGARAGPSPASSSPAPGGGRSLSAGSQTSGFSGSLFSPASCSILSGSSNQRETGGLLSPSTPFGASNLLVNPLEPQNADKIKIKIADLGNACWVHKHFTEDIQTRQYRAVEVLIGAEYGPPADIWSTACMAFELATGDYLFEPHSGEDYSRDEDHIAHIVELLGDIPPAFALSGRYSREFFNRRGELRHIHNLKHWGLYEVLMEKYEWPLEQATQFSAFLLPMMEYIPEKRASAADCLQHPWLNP

In the case of `CCc1cc(Nc2nccc(-c3c(-c4ccc(OC)c(C(=O)Nc5c(F)cccc5F)c4)nc4ccccn34)n2)c(OC)cc1N1CCC(N2CCN(S(C)(=O)=O)CC2)CC1`, the % of inhibition [1] is reported as 47%.
`COc1cc(Nc2nc(C)cc(-c3cnn4nc(OC)ccc34)n2)cc(C(F)(F)F)c1` was tested, and the % of control [2] was 65%, the % of control [3] was 83% and the % of control [4] was 75%.
Compound `CC[C@@H]1[C@H](F)C(=O)N[C@@H]1COc1nccc2cc(C(N)=O)c(OC)cc12` [ZIMLOVISERTIB] has a % of inhibition [5] of 5.7% and a % of inhibition [6] of 0.984%.
In the case of `Cc1cc(F)c(C(=O)Nc2cccc(-c3nncn3C(C)C)n2)cc1-n1cnc(C2CC2)c1`, the % of control [7] is reported as 69%.
`CCC(=O)N1CCN(c2ccc(-n3c(=O)ccc4cnc5ccc(-c6cnc7ccccc7c6)cc5c43)cc2C(F)(F)F)CC1` gave a % of control [8] of 42%.
For `C=CC(=O)Nc1cc(-n2c(=O)ccc3cnc4ccc(-c5ccc(NS(C)(=O)=O)cc5)cc4c32)ccc1C`, the % of control ([9]; at 1 µM) was 100% and the % of control ([9]; at 10 µM) was 100%.
Compound `CN(C)CCOc1ccc(-c2nc(-c3ccncc3)c(-c3ccc4c(c3)CC/C4=N\O)[nH]2)cc1` has a % of control [10] of 67%.
With `CNC(=O)Nc1ccc(-c2nc(N3CC4CCC(C3)O4)c3cnn(C4CCC5(CC4)OCCO5)c3n2)cc1` the % of inhibition [11] was -8%.
